pEC50: −log10 of the molar value. ≈ marks a conversion by molar mass, not a printed value.
Legend:
[1] = biological target: T1, Glutamate NMDA receptor; GRIN1/GRIN2B (Homo sapiens, UniProt Q05586+Q13224); experiment: Positive allosteric modulation of recombinant human GluN1/GluN2B receptor stably expressed in HEK293 cells assessed as increase in glycine/L-glutamate-induced channel current at -70 mV holding potential by whole cell patch clamp method; format: cell-based
[2] = biological target: T2, Glutamate NMDA receptor; GRIN1/GRIN2A (Homo sapiens, UniProt Q05586+Q12879); experiment: Positive allosteric modulation of recombinant human GluN1/GluN2A receptor stably expressed in HEK293 cells assessed as increase in glycine/L-glutamate-induced channel current at -70 mV holding potential by whole cell patch clamp method; format: cell-based
[3] = biological target: T1, Glutamate NMDA receptor; GRIN1/GRIN2B; experiment: Positive allosteric modulation of recombinant human GluN1/GluN2B receptor stably expressed in HEK293 cells assessed as increase in glycine/L-glutamate-induced channel current at -70 mV holding potential by whole cell patch clamp method relative to control; format: cell-based; conditions: filed as positive allosteric modulator
[4] = biological target: T2, Glutamate NMDA receptor; GRIN1/GRIN2A; experiment: Positive allosteric modulation of recombinant human GluN1/GluN2A receptor stably expressed in HEK293 cells assessed as increase in glycine/L-glutamate-induced channel current at -70 mV holding potential by whole cell patch clamp method relative to control; format: cell-based; conditions: filed as positive allosteric modulator
[5] = Half life in po dosed rat; format: ADME, organism-based; conditions: in vivo
[6] = Clearance in po dosed rat; format: ADME, organism-based; conditions: in vivo
[7] = Oral bioavailability in rat; format: ADME, organism-based; conditions: in vivo
[8] = Ratio of drug concentration in ip dosed CD-1 mouse brain to plasma after 1 hr by LC-MS/MS analysis; format: ADME, organism-based; conditions: brain and plasma
[9] = Metabolic stability in human liver microsomes assessed as intrinsic clearance at 10 uM preincubated for 5 mins followed by NADPH addition and measured upto 65 mins by LC-MS/MS analysis; format: ADME, Microsome; conditions: time < 70 min, read-out: CLH
[10] = Lipophilicity, logD of compound in MeOH at 20 uM by HPLC analysis; format: physicochemical
[11] = Oral bioavailability in Sprague-Dawley rat by LC-MS/MS analysis; format: ADME, organism-based; conditions: in vivo
[12] = Clearance in Sprague-Dawley rat by LC-MS/MS analysis; format: ADME; conditions: in vivo
[13] = Metabolic stability in mouse liver microsomes assessed as intrinsic clearance at 10 uM preincubated for 5 mins followed by NADPH addition and measured upto 65 mins by LC-MS/MS analysis; format: ADME, Microsome; conditions: time < 70 min, read-out: CLH
[14] = Metabolic stability in rat liver microsomes assessed as intrinsic clearance at 10 uM preincubated for 5 mins followed by NADPH addition and measured upto 65 mins by LC-MS/MS analysis; format: ADME, Microsome; conditions: time < 70 min, read-out: CLH
[15] = Oral bioavailability in CD-1 mouse by LC-MS/MS analysis; format: ADME, organism-based; conditions: in vivo
[16] = Clearance in CD-1 mouse by LC-MS/MS analysis; format: ADME; conditions: in vivo
[17] = Aqueous solubility of compound in PBS incubated for 1 hr under shaking condition by HPLC-MS/MS analysis; format: physicochemical
[18] = Oral bioavailability in Beagle dog by LC-MS/MS analysis; format: ADME, organism-based, Canis lupus familiaris; conditions: in vivo
[19] = Metabolic stability in dog liver microsomes assessed as intrinsic clearance at 10 uM preincubated for 5 mins followed by NADPH addition and measured upto 65 mins by LC-MS/MS analysis; format: ADME, Canis lupus familiaris, Microsome; conditions: time < 70 min, read-out: CLH
[20] = Clearance in Beagle dog by LC-MS/MS analysis; format: ADME, Canis lupus familiaris; conditions: in vivo

Compound	pEC50 [1]	pEC50 [2]	Emax [3]	Emax [4]	further results
C[C@H](CC[C@](C)(O)CCO)[C@H]1CC[C@H]2[C@@H]3CC=C4C[C@@](C)(O)CC[C@]4(C)[C@H]3CC[C@]12C	< 5.00	< 5.00	–	–	–
C[C@H](CC[C@](C)(O)C(F)(F)F)[C@H]1CC[C@H]2[C@@H]3CC[C@@H]4C[C@@](C)(O)CC[C@]4(C)[C@H]3CC[C@]12C	< 5.00	< 5.00	–	–	–
COCC[C@@](C)(O)CC[C@@H](C)[C@H]1CC[C@H]2[C@@H]3CC=C4C[C@@](C)(O)CC[C@]4(C)[C@H]3CC[C@]12C	6.23	6.66	130%	87%	–
CCCC[C@@](C)(O)CC[C@@H](C)[C@H]1CC[C@H]2[C@@H]3CC=C4C[C@@](C)(O)CC[C@]4(C)[C@H]3CC[C@]12C	6.72	6.80	170%	190%	–
C[C@H](CC[C@@](C)(O)CCO)[C@H]1CC[C@H]2[C@@H]3CC=C4C[C@@](C)(O)CC[C@]4(C)[C@H]3CC[C@]12C	< 5.00	< 5.00	–	–	–
C[C@H](CC[C@](C)(O)C1CC1)[C@H]1CC[C@H]2[C@@H]3CC=C4C[C@@](C)(O)CC[C@]4(C)[C@H]3CC[C@]12C	7.22	6.38	130%	130%	–
C#C[C@@](C)(O)CC[C@@H](C)[C@H]1CC[C@H]2[C@@H]3CC=C4C[C@@](C)(O)CC[C@]4(C)[C@H]3CC[C@]12C	5.96	< 5.00	56%	–	–
C#C[C@](C)(O)CC[C@@H](C)[C@H]1CC[C@H]2[C@@H]3CC=C4C[C@@](C)(O)CC[C@]4(C)[C@H]3CC[C@]12C	< 5.00	< 5.00	–	–	–
C[C@H](CC[C@](C)(O)C(F)(F)F)[C@H]1CC[C@H]2[C@@H]3CC=C4C[C@](C)(O)CC[C@]4(C)[C@H]3CC[C@]12C	5.82	5.66	–	–	–
CC(C)[C@@H](O)CC[C@@H](C)[C@H]1CC[C@H]2[C@@H]3CC=C4C[C@@H](O)CC[C@]4(C)[C@H]3CC[C@]12C	–	–	–	–	half-life [5]: < 0.6 h; CL/F [6]: 91.7 mL/min/kg; bioavailability [7]: < 10%
CC[C@](C)(O)CC[C@@H](C)[C@H]1CC[C@H]2[C@@H]3CC=C4C[C@@](C)(O)CC[C@]4(C)[C@H]3CC[C@]12C	7.00	7.26	120%	170%	Kp at 1 h [8]: 0.2; microsomal CLint at 10 µM [9]: 0.14 µL/min/mg; logD at 20 µM [10]: 6.5; bioavailability [11]: 89%; clearance [12]: 36.7 mL/min/kg; microsomal CLint at 10 µM [13]: 8.4 µL/min/mg; microsomal CLint at 10 µM [14]: 2.7 µL/min/mg
C[C@H](CC[C@](C)(O)C(F)(F)F)[C@H]1CC[C@H]2[C@@H]3CC=C4C[C@@](C)(O)CC[C@@H]4[C@H]3CC[C@]12C	6.60	7.03	52%	50%	–
CC(C)[C@@](C)(O)CC[C@@H](C)[C@H]1CC[C@H]2[C@@H]3CC=C4C[C@@](C)(O)CC[C@]4(C)[C@H]3CC[C@]12C	7.64	7.22	220%	260%	Kp at 1 h [8]: 0.2; microsomal CLint at 10 µM [9]: 6.8 µL/min/mg; logD at 20 µM [10]: 6.7; bioavailability [11]: 116%; clearance [12]: 31.7 mL/min/kg; microsomal CLint at 10 µM [13]: 31 µL/min/mg
CCCC[C@](C)(O)CC[C@@H](C)[C@H]1CC[C@H]2[C@@H]3CC=C4C[C@@](C)(O)CC[C@]4(C)[C@H]3CC[C@]12C	6.35	7.00	170%	170%	–
C[C@H](CC[C@@](C)(O)C(F)(F)F)[C@H]1CC[C@H]2[C@@H]3CC=C4C[C@@](C)(O)CC[C@]4(C)[C@H]3CC[C@]12C	6.74	6.51	–	–	–
CC[C@@](C)(O)CC[C@@H](C)[C@H]1CC[C@H]2[C@@H]3CC=C4C[C@@](C)(O)CC[C@]4(C)[C@H]3CC[C@]12C	6.52	6.82	190%	280%	–
C[C@H](CC[C@](C)(O)C(F)(F)F)[C@H]1CC[C@H]2[C@@H]3CC[C@H]4C[C@@](C)(O)CC[C@]4(C)[C@H]3CC[C@]12C	6.96	6.74	100%	150%	–
C[C@H](CC[C@@](C)(O)C1CC1)[C@H]1CC[C@H]2[C@@H]3CC=C4C[C@@](C)(O)CC[C@]4(C)[C@H]3CC[C@]12C	7.31	7.13	140%	180%	–
CC(C)[C@](C)(O)CC[C@@H](C)[C@H]1CC[C@H]2[C@@H]3CC=C4C[C@@](C)(O)CC[C@]4(C)[C@H]3CC[C@]12C	7.09	6.92	150%	170%	–
C[C@H](CC[C@@H](O)C(F)(F)F)[C@H]1CC[C@H]2[C@@H]3CC=C4C[C@@](C)(O)CC[C@]4(C)[C@H]3CC[C@]12C	–	–	–	–	half-life [5]: 5.75 h; CL/F [6]: 33.3 mL/min/kg; bioavailability [7]: 18%
C[C@H](CCC(C)(C)O)[C@H]1CC[C@H]2[C@@H]3CC=C4C[C@@](C)(O)CC[C@]4(C)[C@H]3CC[C@]12C	–	–	–	–	Kp at 1 h [8]: 0.6; microsomal CLint at 10 µM [9]: 13 µL/min/mg; logD at 20 µM [10]: 5; bioavailability [15]: 53%; bioavailability [11]: 23%; clearance [12]: 30 mL/min/kg; microsomal CLint at 10 µM [13]: 42 µL/min/mg; half-life [5]: 1.7 h; microsomal CLint at 10 µM [14]: 35 µL/min/mg; CL/F [6]: 18.3 mL/min/kg; clearance [16]: 18.3 mL/min/kg; solubility at 1 h [17]: 0.62 µM (≈ 0.25 µg/mL); bioavailability [18]: 17%; microsomal CLint at 10 µM [19]: 16 µL/min/mg; clearance [20]: 3.33 mL/min/kg

Reference: ChEMBL document CHEMBL5131569, “SAGE-718: A First-in-Class N-Methyl-d-Aspartate Receptor Positive Allosteric Modulator for the Potential Treatment of Cognitive Impairment” (J Med Chem, 2022)
